Measurements taken from patent publication US11344603B2, “Cytokine modulation” (AUCKLAND UNISERVICES LIMITED, priority 2017, dated 2022).
Entries after “also recorded” stand apart in the source; their conditions may differ.

Tests used:
ARPE-19 cells [1] = assay: Cytokine and chemokine measurement by Cytometric Bead Array in ARPE-19 incubation medium; type: cell-based, human
Description: (§1) Human adult retinal pigmented epithelial cells (ARPE-19; American Type Culture Collection, Manassas, Va.) were cultured in Dulbecco's Modified Eagle Medium Nutrient Mixture F-12 medium (DMEM-F12; Thermofisher Scientific Inc., USA) supplemented with 10% foetal bovine serum (FBS; Invitrogen) and a 1× antibiotics and antimycotics mixture (AA, 100× stock) at 37° C. in a humidified 5% C02 incubator. Cells were grown in T75 flasks and the medium was changed twice per week until confluent and ready for experimentation.
(§2) At passage 6-12, cells were plated at 2.5×10^5 cells/mL in 8-well chamber slides for immunohistochemical studies or 24-well plates for ATP release assay and cytometric bead array analysis. Once confluent, the culture medium was changed to treatments in serum-free DMEM-F12 containing 1×AA. Some cultures were challenged with 15 mM glucose (High glucose (high glucose) group), a combination of pro-inflammatory cytokines 10 ng/mL TNF-α (Peprotech, USA) and 10 ng/mL IL-1β (Peprotech, USA) (Cytokines group), or a combination of high glucose, 10 ng/mL TNF-α and 10 ng/mL IL-1β (high glucose+Cytokines group). The untreated group received a medium change with no additional treatments (Basal group). All assessments were carried out 24 h post-treatment.
(§3) Peptide5 (H-Val-Asp-Cys-Phe-Leu-Ser-Arg-Pro-Thr-Glu-Lys-Thr-OH (SEQ ID NO: 1); China Peptides, China) was administered to cells challenged with high glucose and pro-inflammatory cytokines. Concentration-dependent effects were studied at 5, 10, 25 and 50 μM of […] after 24 h. […] O'Carroll, S J, et al. Connexin43 mimetic peptides reduce swelling, astrogliosis, and neuronal cell death after spinal cord injury. Cell communication & adhesion, 15:27-42 (2008).
Soluble cytokines and chemokines in the ARPE-19 incubation medium were measured simultaneously using multiplexed bead-based immunoassays, Cytometric Bead Array (CBA, BD Biosciences, USA). Three tests of 50 μL volume was taken from duplicate cultures in 24-well plates after 24 h and transferred into a 96-well plate to be used for the CBA assay. The analysis included six tests per group. The assay was conducted according to the manufacturer's instructions. Briefly, a ten-point standard curve ranging from 0 to 5000 pg/mL for each cytokine was prepared using the cytokine standard provided in each kit. The cytokines measured were human soluble CD54 (sICAM-1, cat #560269, BD Biosciences, USA), IL-6 (cat #558276), IL-8 (cat #558227), and MCP-1 (cat #558287). Samples and cytokine standards were incubated in the capture bead mixture for 1 h and Phycoerythrin (PE)-conjugated antibodies against each cytokine were added to the sample-bead mixture for 2 h incubation at room temperature. All buffers used were from the CBA human soluble protein master buffer kit (cat #558265, BD Biosciences, USA). Beads were washed and analysed using an Accuri C6 flow cytometer (BD Biosciences, USA). Mean fluorescence intensity for each bead cluster was converted into cytokine concentrations based on the ten-point standard curve using FCAP Array™ software (BD version 3.1) as described previously (O'Carroll et al., 2015).

[2] = system: NLRP3 inflammasome complex; assay: Immunohistochemical labelling and quantification of NLRP3 inflammasome complexes; type: cell-based, human; conditions: 24 h
Description: At passage 6-12, cells were plated at 2.5×10^5 cells/mL in 8-well chamber slides for immunohistochemical studies or 24-well plates for ATP release assay and cytometric bead array analysis. Once confluent, the culture medium was changed to treatments in serum-free DMEM-F12 containing 1×AA. Some cultures were challenged with 15 mM glucose (High glucose (high glucose) group), a combination of pro-inflammatory cytokines 10 ng/mL TNF-α (Peprotech, USA) and 10 ng/mL IL-1β (Peprotech, USA) (Cytokines group), or a combination of high glucose, 10 ng/mL TNF-α and 10 ng/mL IL-1β (high glucose+Cytokines group). The untreated group received a medium change with no additional treatments (Basal group). All assessments were carried out 24 h post-treatment. After 24 h of incubation in treatment media, cells were fixed with 4% paraformaldehyde for 10 min and permeabilised with 0.1% Triton X-100 in phosphate buffer saline (PBS) for 10 min. Cells were then incubated with mouse anti-NLRP3 (1:100; Abcam, USA) at 4° C. overnight followed by washing in PBS three times for 15 min. Goat anti-mouse Cy3 (1:500; Jackson Immuno Research, USA) secondary antibodies were applied to the slides and incubated at room temperature for 3 h. […] For NLRP3 immunohistochemical analysis, four images were analysed per well and the entire experiment was repeated three times. […] The number of NLPR3 spots were counted for each image.

ARPE-19 cells [3] = assay: ATP release assay (ATPlite luminescence); type: cell-based, human; conditions: high glucose + cytokines, 24 h, compared to high glucose and cytokines
Description: as §1
At passage 6-12, cells were plated at 2.5×10^5 cells/mL in 8-well chamber slides for immunohistochemical studies or 24-well plates for ATP release assay and cytometric bead array analysis. Once confluent, the culture medium was changed to treatments in serum-free DMEM-F12 containing 1×AA. […]
After 24 h of incubation in treatment media, ATP release was measured in triplicates using 50 μL of culture medium taken from duplicate wells of 24-well plates. […] ATP released into the culture medium was measured using the ATPlite Luminescence ATP Detection Assay System as per manufacturer instructions (PerkinElmer, USA). ATP release (%) in Peptide5 treated cultures (treated group) were calculated relative to cells treated with high glucose and cytokines (injury group) using the formula: (OD490 of treated group−OD490 of injury group)/(OD490 of injury group)×100%.

connexin 43 hemichannels = conditions: cited from earlier work
ARPE-19 cells [4] = assay: VEGF secretion by ARPE-19 cells; type: cell-based, human; conditions: for VEGF release: high glucose + cytokines + Peptagon, versus basal
Description: as §1, §2, §3

[5] = biological target: Cx43 carboxy-terminal domain (Rattus norvegicus, UniProt P08050); conditions: low pH conditions; Verma et al. 2009, 2010; cited from earlier work
Chain of Cx43 carboxy-terminal domain (P08050 whole entry, the tested form may be a part): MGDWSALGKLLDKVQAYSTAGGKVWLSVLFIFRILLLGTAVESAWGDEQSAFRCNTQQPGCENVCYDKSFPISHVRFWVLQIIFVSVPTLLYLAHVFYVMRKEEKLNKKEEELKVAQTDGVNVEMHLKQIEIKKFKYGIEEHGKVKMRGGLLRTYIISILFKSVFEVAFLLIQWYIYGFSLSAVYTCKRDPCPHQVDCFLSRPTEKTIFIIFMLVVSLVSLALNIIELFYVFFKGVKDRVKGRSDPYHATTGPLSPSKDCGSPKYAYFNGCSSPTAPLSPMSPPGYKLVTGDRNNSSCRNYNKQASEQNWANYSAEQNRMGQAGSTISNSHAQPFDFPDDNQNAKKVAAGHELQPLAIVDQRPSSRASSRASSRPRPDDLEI

[6] = high glucose + cytokines (10 ng/mL TNF-α, 10 ng/mL IL-1β), Peptagon 5, 10, 25, 50 μM, 24 h
[7] = high glucose + cytokines, 5, 10, 25, 50 μM, 24 h
[8] = high glucose + cytokines, Peptagon 25 μM, 24 h
[9] = 10 nM exogenous ATP alone, mean ± SD
[10] = high glucose + cytokines + Peptagon 25 μM + ATP 10 nM, 24 h

H-Val-Asp-Cys-Phe-Leu-Ser-Arg-Pro-Thr-Glu-Lys-Thr-OH (H-VDCFLSRPTEKT-OH) [Peptagon]
IL-6 secretion (ARPE-19 cells [1]; [6]): significantly reduced | IL-8 secretion (ARPE-19 cells [1]; [6]): significantly reduced | MCP-1 secretion (ARPE-19 cells [1]; [6]): significantly reduced | sICAM-1 secretion (ARPE-19 cells [1]; [6]): significantly reduced; also recorded: decrease | concentration dependence of decrease in IL-6, IL-8 and MCP-1 secretion (ARPE-19 cells [1]; [7]): slight trend towards a concentration-dependent decrease; also recorded: concentration-dependent manner | concentration dependence of decrease in sICAM-1 secretion (ARPE-19 cells [1]; [7]): all peptide concentrations had the same effect | IL-6 secretion (ARPE-19 cells [1]; [8]): reduced secretion | IL-8 secretion (ARPE-19 cells [1]; [8]): reduced secretion | MCP-1 secretion (ARPE-19 cells [1]; [8]): reduced secretion | sICAM-1 secretion (ARPE-19 cells [1]; [8]): reduced secretion | NLRP3 inflammasome assembly ([2]; high glucose + inflammatory cytokines): blocked inflammasome assembly | ATP release (ARPE-19 cells [3]): significantly reduced | ATP release (ARPE-19 cells [3]; listed as Peptide5): prevented | connexin 43 hemichannel block versus gap junction coupling (connexin 43 hemichannels; 5, 10, 25 and 50 μM, O'Carroll et al. 2008): block connexin 43 hemichannels with minimal effect on gap junction cell-cell coupling | dose dependent action on hemichannels and gap junctions (connexin 43 hemichannels; O'Carroll et al., 2008): lower doses blocking gap junction hemichannel opening and higher doses uncoupling gap junctions between cells | VEGF release (ARPE-19 cells [4]; 24 h): restored VEGF secretion back to basal levels | VEGF release (ARPE-19 cells [4]; 24 h, listed as Peptide5): completely arrested

RRNYRRNY [linear peptide RRNYRRNY targeting the Cx43 carboxy-terminal domain]
Cx43-based gap junction closure [5]: prevent Cx43-based gap junction closure under low pH conditions

Nc1ncnc2c1ncn2[C@@H]1O[C@H](COP(=O)(O)OP(=O)(O)OP(=O)(O)O)[C@@H](O)[C@H]1O [ATP]
change in IL-6 secretion compared to basal conditions (ARPE-19 cells [1]; 10 nM exogenous ATP alone): no change | change in IL-8 secretion compared to basal conditions (ARPE-19 cells [1]; 10 nM exogenous ATP alone): no change | change in sICAM-1 secretion compared to basal conditions (ARPE-19 cells [1]; 10 nM exogenous ATP alone): no change | IL-6 secretion in response to extracellular ATP (ARPE-19 cells [1]; [9]): 8.22 ± 2.25 pg/mL | IL-8 secretion in response to extracellular ATP (ARPE-19 cells [1]; [9]): 67.70 ± 11.44 pg/mL | MCP-1 secretion in response to extracellular ATP (ARPE-19 cells [1]; [9]): 230.72 ± 37.08 pg/mL | sICAM-1 secretion in response to extracellular ATP (ARPE-19 cells [1]; [9]): 0 pg/mL | change in MCP-1 release compared to basal conditions (ARPE-19 cells [1]; 10 nM exogenous ATP alone, p≤0.0001): decrease | effect of exogenous ATP on Peptagon-mediated protection against IL-6 release (ARPE-19 cells [1]; [10]): back towards injury levels; also recorded: reversed | effect of exogenous ATP on Peptagon-mediated protection against IL-8 release (ARPE-19 cells [1]; [10]): back towards injury levels; also recorded: reversed | effect of exogenous ATP on Peptagon-mediated protection against MCP-1 release (ARPE-19 cells [1]; [10]): back towards injury levels; also recorded: reversed | effect of exogenous ATP on Peptagon-mediated protection against sICAM-1 release (ARPE-19 cells [1]; [10]): did not reach statistical significance | effect of exogenous ATP on Peptagon block of NLRP3 inflammasome assembly ([2]; high glucose + cytokines + Peptagon + 10 nM ATP): overrode the hemichannel blocker treatment | change in VEGF secretion compared to basal conditions (ARPE-19 cells [4]; 10 nM exogenous ATP alone): no change | VEGF secretion in response to extracellular ATP (ARPE-19 cells [4]; [9]): 56.62 ± 8.94 pg/mL | effect of exogenous ATP on Peptagon hemichannel block effect on VEGF release (ARPE-19 cells [4]; high glucose + cytokines + Peptagon + exogenous ATP, 24 h): completely overrode; also recorded: negated hemichannel blocker-mediated protection against VEGF release
